Data on 26 compounds can be found in US11976072B2, “Diacylglycerol kinase modulating compounds” (priority 2021, dated 2024).

SMILES strings stand for the structures. Read-outs that look alike come from different tables or passages of the source.

The IC50 is the concentration needed to halve the response being measured. What is called EC50 is the concentration that produces a half-maximal response.

One test addresses human DGKα (Homo sapiens, UniProt P23743). Description: DGKα Biochemical Activity Assay (ADP-Glo).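 Note: luminescent detection of ADP produced as DGKα phosphorylates DAG to phosphatidic acid, IC50 from four-parameter nonlinear curve fit.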 As to conditions: recombinant DGKα 1 nM, 100 μM ATP, 18:1 DAG/POPS/octylglucoside micelles, 1 hour at 25° C.; geometric mean; read-out: HTBS DGKa 1X ATP KM IC50.
Test [1] concerns Jurkat NFκB-luciferase cells. Kind of test: Jurkat NFκB-Luciferase Assay. The settings on record: Homo sapiens. The format is cell-based. The gist of the method: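 Jurkat NFκB-luciferase reporter cells at 1 million cells/ml in RPMI with 10% FBS were added to antibody-coated, compound-containing wells. Luciferase activity read by One-Glo Ex luminescence 7 minutes after reagent addition.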

Setting [2] is: Jurkat NFκB-luciferase cells activated with anti-CD3 antibody (OKT3), 2.5 hrs at 37° C., geometric mean, read-out: DGK NFKb Luciferase EC50.
[3] abbreviates: Jurkat, […], read-out: DGK NFKb Luciferase EC50 (nM).

Chain of human DGKα (P23743 whole entry): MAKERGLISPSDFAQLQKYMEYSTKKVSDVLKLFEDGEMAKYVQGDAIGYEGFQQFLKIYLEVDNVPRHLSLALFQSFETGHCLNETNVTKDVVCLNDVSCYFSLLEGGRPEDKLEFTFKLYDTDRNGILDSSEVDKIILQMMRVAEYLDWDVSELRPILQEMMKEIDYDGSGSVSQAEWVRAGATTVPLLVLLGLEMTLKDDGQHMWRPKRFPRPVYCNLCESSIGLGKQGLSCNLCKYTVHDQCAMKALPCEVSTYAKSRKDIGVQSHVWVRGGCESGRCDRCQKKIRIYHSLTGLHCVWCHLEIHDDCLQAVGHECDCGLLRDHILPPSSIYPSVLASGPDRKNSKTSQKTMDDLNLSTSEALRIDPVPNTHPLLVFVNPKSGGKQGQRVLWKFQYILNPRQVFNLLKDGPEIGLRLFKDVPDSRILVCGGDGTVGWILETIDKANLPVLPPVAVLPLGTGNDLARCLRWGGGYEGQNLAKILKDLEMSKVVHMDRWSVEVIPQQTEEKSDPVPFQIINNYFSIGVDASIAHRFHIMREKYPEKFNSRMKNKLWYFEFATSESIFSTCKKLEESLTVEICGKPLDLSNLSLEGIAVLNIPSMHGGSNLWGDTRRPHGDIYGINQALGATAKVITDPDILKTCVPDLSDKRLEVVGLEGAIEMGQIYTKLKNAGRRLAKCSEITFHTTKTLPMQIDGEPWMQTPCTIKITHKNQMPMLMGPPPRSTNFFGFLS

As to `Cc1nc(C#Cc2cccc3c2COCCN3c2nc3nnc(C)n3c3cccc(F)c23)co1` [Example 179, 1-(6-Fluoro-1-methyl-[1,2,4]triazolo[4,3-a]quinazolin-5-yl)-6-[2-(2-methyloxazol-4-yl)ethynyl]-3,5-dihydro-2H-4,1-benzoxazepine], at human DGKα, the concentration for half-maximal inhibition (IC50) was determined as 9.59 nM. Also, the EC50 in test [1] (setting [2]) came to 9.13 nM.
For `Cc1nnc2nc(N3CCOCc4c(C#CC(C)(C)NC(=O)C(C)(C)C(C)(F)F)cccc43)c3c(F)cccc3n12` [Example 180, 3,3-Difluoro-N-[3-[1-(6-fluoro-1-methyl-[1,2,4]triazolo[4,3-a]quinazolin-5-yl)-3,5-dihydro-2H-4,1-benzoxazepin-6-yl]-1,1-dimethyl-prop-2-ynyl]-2,2-dimethyl-butanamide], in that order: 5.12 nM and 13.5 nM.
For `Cc1nnc2nc(N3CCOCc4c(C#CC(C)(C)NC(=O)C5(C(C)(F)F)CC5)cccc43)c3c(F)cccc3n12` [Example 181, 1-(1,1-Difluoroethyl)-N-[3-[1-(6-fluoro-1-methyl-[1,2,4]triazolo[4,3-a]quinazolin-5-yl)-3,5-dihydro-2H-4,1-benzoxazepin-6-yl]-1,1-dimethyl-prop-2-ynyl]cyclopropanecarboxamide], the IC50 on human DGKα was determined as 4.06 nM. Also, the EC50 in test [1] (setting [2]) was determined as 12.4 nM.
On the same counts, the results for `Cc1nnc2nc(N3CCOCc4c(C#CC(C)(C)NC(=O)C5(C(F)(F)F)CC5)cccc43)c3c(F)c(F)ccc3n12` [Example 182, N-[3-[1-(6,7-Difluoro-1-methyl-[1,2,4]triazolo[4,3-a]quinazolin-5-yl)-3,5-dihydro-2H-4,1-benzoxazepin-6-yl]-1,1-dimethyl-prop-2-ynyl]-1-(trifluoromethyl)cyclopropanecarboxamide] are 2.41 nM and 4.27 nM.
For `Cc1nnc2nc(N3CCCCc4c(C#CC(C)(C)NC(=O)C5(C(F)(F)F)CC5)cccc43)c3c(F)cccc3n12` [Example 183, N-(4-(1-(6-fluoro-1-methyl-[1,2,4]triazolo[4,3-a]quinazolin-5-yl)-2,3,4,5-tetrahydro-1H-benzo[b]azepin-6-yl)-2-methylbut-3-yn-2-yl)-1-(trifluoromethyl)cyclopropane-1-carboxamide], in that order: 28.4 nM and 11.8 nM.
For `Cc1nnc2nc(N3CCOCc4c(C#CC(C)(C)C(C)(F)F)cccc43)c3c(F)c(F)ccc3n12` [Example 184, 6-(4,4-Difluoro-3,3-dimethyl-pent-1-ynyl)-1-(6,7-difluoro-1-methyl-[1,2,4]triazolo[4,3-a]quinazolin-5-yl)-3,5-dihydro-2H-4,1-benzoxazepine], in that order: 7.51 nM and 0.787 nM.
For the compound `Cc1nnc2nc(N3CCCCc4c(C#CC5(C)COC5)cccc43)c3c(F)c(F)ccc3n12` [Example 185, 6,7-Difluoro-1-methyl-5-[6-[2-(3-methyloxetan-3-yl)ethynyl]-2,3,4,5-tetrahydro-1-benzazepin-1-yl]-[1,2,4]triazolo[4,3-a]quinazoline], the IC50 on human DGKα is 4.58 nM. Besides, the 50% effective concentration (EC50) in test [1] (setting [2]) was found to be 1.09 nM.
For `Cc1nnc2nc(N3CCCCc4c(C#CC(C)(C)C#N)cccc43)c3c(F)c(F)ccc3n12` [Example 186, 4-[1-(6,7-Difluoro-1-methyl-[1,2,4]triazolo[4,3-a]quinazolin-5-yl)-2,3,4,5-tetrahydro-1-benzazepin-6-yl]-2,2-dimethyl-but-3-ynenitrile], in that order: 6.51 nM and 2.84 nM.
For the compound `Cc1nnc2nc(N3CCOCc4c(C#CC(C)(C)C(C)(F)F)cccc43)c3c(F)cccc3n12` [Example 187, 6-(4,4-Difluoro-3,3-dimethyl-pent-1-ynyl)-1-(6-fluoro-1-methyl-[1,2,4]triazolo[4,3-a]quinazolin-5-yl)-3,5-dihydro-2H-4,1-benzoxazepine], on human DGKα, the IC50 is 12.3 nM. In addition, the EC50 in test [1] (setting [2]) is 1.45 nM.
For `Cc1nnc2nc(N3CCCCc4c(C#CC(C)(C)C#N)cccc43)c3c(F)cccc3n12` [Example 188, 4-[1-(6-Fluoro-1-methyl-[1,2,4]triazolo[4,3-a]quinazolin-5-yl)-2,3,4,5-tetrahydro-1-benzazepin-6-yl]-2,2-dimethyl-but-3-ynenitrile], in that order: 9.86 nM and 2.12 nM.
On the same counts, the results for `Cc1nnc2nc(N3CCOCc4c(C#CC(C)(C)C#N)cccc43)c3c(F)cccc3n12` [Example 189, 4-[1-(6-Fluoro-1-methyl-[1,2,4]triazolo[4,3-a]quinazolin-5-yl)-3,5-dihydro-2H-4,1-benzoxazepin-6-yl]-2,2-dimethyl-but-3-ynenitrile] are 1.84 nM and 3.44 nM.
For `Cc1nnc2nc(N3CCOCc4c(C#CC(C)(C)C(F)F)cccc43)c3c(F)cccc3n12` [Example 190, 6-(4,4-Difluoro-3,3-dimethyl-but-1-ynyl)-1-(6-fluoro-1-methyl-[1,2,4]triazolo[4,3-a]quinazolin-5-yl)-3,5-dihydro-2H-4,1-benzoxazepine], the IC50 at human DGKα came out at 6.91 nM. Also, the EC50 in test [1] (setting [2]) stood at 1.46 nM.
On the same counts, the results for `Cc1nnc2nc(N3CCOCc4c(C#CC5(C(F)F)CC5)cccc43)c3c(F)cccc3n12` [Example 191, 6-[2-[1-(Difluoromethyl)cyclopropyl]ethynyl]-1-(6-fluoro-1-methyl-[1,2,4]triazolo[4,3-a]quinazolin-5-yl)-3,5-dihydro-2H-4,1-benzoxazepine] are 3.66 nM and 1.42 nM.
Turning to `Cc1nnc2nc(N3CCCCc4c(C#CC5(C(F)(F)F)CC5)cccc43)c3c(F)cccc3n12` [Example 192], the IC50 on human DGKα came to 54.9 nM. Besides, the EC50 in test [1] (setting [2]) amounted to 0.892 nM.
`Cc1nnc2nc(N3CCCCc4c(C#CC5(C)COC5)cccc43)c3c(F)cccc3n12` [Example 193]: the 50% inhibitory concentration (IC50) at human DGKα was 2.85 nM. For the same compound, in test [1] (setting [2]), the concentration giving a half-maximal response (EC50) is 0.871 nM.
On to `Cc1nnc2nc(N3CCOCc4c(C#CC5(C)COC5)cccc43)c3c(F)cccc3n12` [Example 194, 1-(6-Fluoro-1-methyl-[1,2,4]triazolo[4,3-a]quinazolin-5-yl)-6-[2-(3-methyloxetan-3-yl)ethynyl]-3,5-dihydro-2H-4,1-benzoxazepine], for which the IC50 on human DGKα amounted to 0.773 nM. Besides, the EC50 in test [1] (setting [2]) was 1.68 nM.
On the same counts, the results for `CCC1(C#Cc2cccc3c2COCCN3c2nc3nnc(C)n3c3cccc(F)c23)CC1` [Example 195, 6-[2-(1-Ethylcyclopropyl)ethynyl]-1-(6-fluoro-1-methyl-[1,2,4]triazolo[4,3-a]quinazolin-5-yl)-3,5-dihydro-2H-4,1-benzoxazepine] are 13.3 nM and 0.382 nM.
On the same counts, the results for `Cc1nnc2nc(N3CCOCc4c(C#CC5(C)CC5)cccc43)c3c(F)c(F)ccc3n12` [Example 196, 1-(6,7-Difluoro-1-methyl-[1,2,4]triazolo[4,3-a]quinazolin-5-yl)-6-((1-methylcyclopropyl)ethynyl)-1,2,3,5-tetrahydrobenzo[e][1,4]oxazepine] are 2.49 nM and 0.545 nM.
With `Cc1nnc2nc(N3CCCc4c(C#CC5(O)CCC6(CC5)CC6)cccc43)c3c(F)cccc3n12` [Example 197], the half-inhibitory concentration (IC50) on human DGKα is 11 nM. In addition, the EC50 in test [1] (setting [2]) is 1.38 nM.
Turning to `Cc1nnc2nc(N3CCCc4c(C#CC5(O)CC6CC(C6)C5)cccc43)c3c(F)cccc3n12` (stereo not shown) [Example 198, 3-((1-(6-fluoro-1-methyl-[1,2,4]triazolo[4,3-a]quinazolin-5-yl)-1,2,3,4-tetrahydroquinolin-5-yl)ethynyl)bicyclo[3.1.1]heptan-3-ol], the IC50 on human DGKα is 10.8 nM. For the same compound, in test [1] (setting [3]), the 50% effective concentration (EC50) turned out to be 0.508 nM.
For the compound `Cc1nnc2nc(N3CCCc4c(C#CC5(O)C[C@H]6C[C@H]6C5)cccc43)c3c(F)cccc3n12` (stereo partly drawn) [Example 199, (1R,5S)-3-((1-(6-fluoro-1-methyl-[1,2,4]triazolo[4,3-a]quinazolin-5-yl)-1,2,3,4-tetrahydroquinolin-5-yl)ethynyl)bicyclo[3.1.0]hexan-3-ol], the IC50 on human DGKα amounted to 3.83 nM. Further, the concentration giving a half-maximal response (EC50) in test [1] (setting [3]) was 1.62 nM.
For `Cc1nnc2nc(N3CCOCc4c(C#CC5(C(C)(F)F)CC5)cccc43)c3c(F)c(F)ccc3n12` [Example 200, 6-[2-[1-(1,1-Difluoroethyl)cyclopropyl]ethynyl]-1-(6,7-difluoro-1-methyl-[1,2,4]triazolo[4,3-a]quinazolin-5-yl)-3,5-dihydro-2H-4,1-benzoxazepine], the IC50 on human DGKα was found to be 5.18 nM. Further, the EC50 in test [1] (setting [2]) came to 0.858 nM.
Take `CC(F)(F)C1(C#Cc2cccc3c2COCCN3c2nc3nncn3c3ccc(F)c(F)c23)CC1` [Example 201, 6-[2-[1-(1,1-Difluoroethyl)cyclopropyl]ethynyl]-1-(6,7-difluoro-[1,2,4]triazolo[4,3-a]quinazolin-5-yl)-3,5-dihydro-2H-4,1-benzoxazepine]: the IC50 on human DGKα was determined as 6.77 nM. In addition, the half-maximal effective concentration (EC50) in test [1] (setting [2]) amounted to 0.202 nM.
With `OC1(C#Cc2cccc3c2CCCN3c2nc3nncn3c3cccc(F)c23)CCCCC1` [Example 202, 1-((1-(6-Fluoro-[1,2,4]triazolo[4,3-a]quinazolin-5-yl)-1,2,3,4-tetrahydroquinolin-5-yl)ethynyl)cyclohexan-1-ol], the IC50 on human DGKα was 3.88 nM. Also, the EC50 in test [1] (setting [3]) is 2.04 nM.
Turning to `Fc1ccc2c(c(N3CCOCc4c(C#CC5(C(F)(F)F)CC5)cccc43)nc3nncn32)c1F` [Example 203, 1-(6,7-Difluoro-[1,2,4]triazolo[4,3-a]quinazolin-5-yl)-6-[2-[1-(trifluoromethyl)cyclopropyl]ethynyl]-3,5-dihydro-2H-4,1-benzoxazepine], the concentration for half-maximal inhibition (IC50) at human DGKα came out at 2.1 nM. In addition, the EC50 in test [1] (setting [2]) was 0.307 nM.
On the same counts, the results for `CC(C)(C#Cc1cccc2c1COCCN2c1nc2nncn2c2ccc(F)c(F)c12)C(F)(F)F` [Example 204, 1-(6,7-Difluoro-[1,2,4]triazolo[4,3-a]quinazolin-5-yl)-6-(4,4,4-trifluoro-3,3-dimethyl-but-1-ynyl)-3,5-dihydro-2H-4,1-benzoxazepine] are 3.83 nM and 0.121 nM.
